Patent publication US8916712B2, “Compositions and methods for cytoprotection” (Board of Trustees of the University of Arkansas, priority 2007, dated 2014)
Read-outs that look alike come from different tables or passages of the source.

Key:
[1] = Trolox-Equivalent Antioxidant Capacity (TEAC) Assay; details: for TEAC value, Ligand / TEAC value, Chelate: relative to Trolox standard assigned TEAC 1.00; for TEAC value, Chelate: zinc chelate of the named ligand
Experimental: The antioxidant capacity of the zinc chelates was measured using the 6-hydroxy-2,5,7,8-tetramethylchroman-2-carboxylic acid (Trolox)-Equivalent Antioxidant Capacity (TEAC) Assay (Randox Laboratories Ltd., Antrim, United Kingdom). […] Antioxidant capacity was measured relative to the Trolox standard, which was assigned a TEAC value of 1.00.

[2] = test system: U937 human promonocytic cells; details: for Radioprotection / cytoprotection: 50 Gy, 0-100 μM added immediately after irradiation, PI assay 24 hr
Experimental: To determine the radioprotective effects of Zn^2+-chelates, U937 human promonocytic cells (ATCC number CRL-1593.2) were irradiated with or without Zn^2+-chelates added to the cells before or after irradiation, and radiation-induced cell death was measured 24 hr later using a propidium iodide (PI) assay. Propidium iodide was added to the cells at a final concentration of 4 μM and incubated for 15 minutes. Fluorescence (which indicates dead cells) was measured at 530/645 nm, and fluorescence was measured again after cell lysis with Triton-100 (1%, v/v) for 20 minutes (to give an estimate of total cells). The background (no cells) was subtracted, and the percent of the radiation-induced cell death was computed.
Different concentrations (0-100 μM) of a compound were added to the cells, which were then irradiated with 50 Gy.
Human U937 cells were irradiated in vitro with 50 Gy and the compounds were added at different concentrations (0-100 μM) immediately after irradiation. […] Cell death was measured 24 hr after irradiation using a PI assay (as detailed above).

[3] = compound added before 50 Gy, Zn^2+-chelate 1-20 μM, PI assay 24 hr later

Molecule	TEAC value, Ligand [1]	TEAC value, Chelate [1]	Radiation-induced cell death [2, 3]	Radioprotection / cytoprotection [2]	other results
CC(C)(S)[C@@H](N)C(=O)O [Penicillamine]	1.54				Antioxidant activity in TEAC assay [1]: strongest antioxidants
[Zn+2] [Unchelated Zn^2+]					Antioxidant activity in TEAC assay [1]: no activity
Zn^2+-Cysteamine [Zn-Cysteamine]		0.87	inhibited		Inhibition of cell death compared with that induced by cysteamine or amifostine ([2]; added before 50 Gy, PI assay): better
NCCS [Cysteamine]	0.40		inhibition		
N[C@@H](CS)C(=O)O [Cysteine]	0.43			not cytoprotective	
CC(=O)N[C@@H](CS)C(=O)O [NAC, N-Acetylcysteine]	0.88			not cytoprotective	
Zn^2+-Cysteine [Zn-Cysteine]		0.65		significant cytoprotection	Radiation-induced cell death [2]: inhibited
CC(S)C(=O)NCC(=O)O (stereo not shown) [MPG, N-(2-mercaptopropionyl)glycine]	0.53				
Zn—N-(2-mercaptopropionyl)glycine [Zn-MPG]		0.97	inhibited		
C[C@H](CS)C(=O)N1CCC[C@H]1C(=O)O [Captopril]	0.90				
